Consider six molecules from patent US5380921A, “Aminophosponic acid derivative” (Banyu Pharmaceutical Co., Ltd., priority 1993, dated 1995).

The test system of one experiment is Guinea Pigs. The experiment in a line: Effect on Big Endothelin-1-induced Increase in Airway Resistance in Guinea Pigs. The class given is in vivo, guinea pig. As for the experimental part: Guinea pigs were first anesthetized with urethane, and then the necks were subjected to median incision, a tracheal cannula was inserted in the trachea. Spontaneous respiration was interrupted with succinylcholine (5 mg/kg, hypodermic injection), and then an artificial respirator was used to effect artificial ventilation (10 ml/air/kg, […]). The airway pressure was then measured and recorded using the Konzett and Rossler method (Arch. Exp. Path. Pharmacol., Vol. 135, p.71-74, 1940), via an airway contraction transducer from the tracheal cannula.
Examined was the influence of a representative compound of the present invention (Compound of Example 1, Isomer B) to the increase in airway pressure produced by the administration of 5 nmol/kg of big endothelin-1 through a polyethylene tube inserted into the common carotid vein. The test compound was injected into the common carotid vein 5 minutes before the administration of big endothelin-1. Also, upon completion of the experiment, the change in airway pressure obtained by blockage of the trachea was defined as a 100% increase in airway pressure, and the measured increases in airway pressure were expressed as percentages of this value. […]

The test system of experiment [1] is Isolated Guinea Pig Bronchial Smooth Muscles. The experiment in a line: Effect on Big Endothelin-1-induced Contraction in Isolated Guinea Pig Bronchial Smooth Muscles. The method, then:
Bronchia (outer diameter approximately 2 mm) were isolated from the lung of a guinea pig, and the connective tissue, lung parenchymal tissue, etc. were peeled off, and then a ring preparation (4 mm in length) was prepared. These samples were placed in a 5 ml Magnus' tube filled with Krebs-Henseleit solution saturated with a gas mixture of 95% O2 and 5% CO2, and a change in tension was isometrically measured and recorded.
The influence of a representative compound of the present invention (Compound of Example 2, Isomer B) to the increase in the tension produced by 100 nM of big endothelin-1 was examined. The test compound was added into the Magnus' tube 40 minutes prior to the addition of big endothelin-1.
A 100% increase in the tension was defined as that in the case of no addition of the test compound (control) at 2 hours after addition of big endothelin-1, and the comparison with the increase in the tension in the cases where the test compound was added is shown in Table 3.

For experiment [2], the target named is T1, endothelin-converting enzyme (ECE) (Bos taurus, UniProt P42891).
T1 construct: ECE was prepared according to the method already published by Yano, et.al; endogenous in cells
T1 sequence (P42891 1-754): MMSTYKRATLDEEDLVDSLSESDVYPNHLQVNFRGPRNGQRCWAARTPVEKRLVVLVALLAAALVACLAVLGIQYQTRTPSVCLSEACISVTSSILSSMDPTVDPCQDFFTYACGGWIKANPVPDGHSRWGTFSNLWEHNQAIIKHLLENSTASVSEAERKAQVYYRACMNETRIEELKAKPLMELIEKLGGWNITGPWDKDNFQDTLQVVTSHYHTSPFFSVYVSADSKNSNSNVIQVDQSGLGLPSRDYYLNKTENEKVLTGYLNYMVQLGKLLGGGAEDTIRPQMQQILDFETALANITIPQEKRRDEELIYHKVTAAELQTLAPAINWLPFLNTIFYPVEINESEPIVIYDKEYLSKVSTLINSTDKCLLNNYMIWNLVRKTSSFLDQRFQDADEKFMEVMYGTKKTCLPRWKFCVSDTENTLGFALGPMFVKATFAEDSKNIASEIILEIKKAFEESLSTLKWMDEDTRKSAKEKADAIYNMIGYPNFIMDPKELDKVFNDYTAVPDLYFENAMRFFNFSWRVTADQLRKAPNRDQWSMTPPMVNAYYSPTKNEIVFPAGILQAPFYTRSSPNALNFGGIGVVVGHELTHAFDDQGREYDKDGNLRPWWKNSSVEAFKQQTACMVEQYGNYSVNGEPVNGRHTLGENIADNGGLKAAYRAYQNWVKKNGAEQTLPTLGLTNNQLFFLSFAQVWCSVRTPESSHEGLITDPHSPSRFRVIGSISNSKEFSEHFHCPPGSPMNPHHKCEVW
The experiment in a line: ECE Activity Inhibition Test (endothelin-1 produced from big endothelin-1, RIA). It is filed as biochemical. The settings on record: 10 μM test compound; 1 μM big endothelin-1; pH 7.2, 37° C., 90 minutes. As for the experimental part:
ECE was prepared according to the method already published by Yano, et.al. (Biochem. Biophys. Res. Commun., Vol. 171, p.1192-1198, 1990), and 11 μg of ECE and 1 μM of big endothelin-1 were reacted with a 0.5M Tris-HCl buffer solution (pH 7.2) at 37° C. for 90 minutes in the presence or absence of a test compound, after which the amount of endothelin-1 produced thereby was determined by the RIA method, and the ECE inhibition activity of the test compound was evaluated.

The test system of experiment [3] is Isolated Pig Coronary Arteries. In words: Effect on endothelin-1-induced increase in tension in isolated pig coronary arteries. The settings on record: 0.3 nM endothelin-1. As for the experimental part: Pig coronary arteries were isolated, and a spiral preparation having a width of 1 mm and a length of 10 mm was prepared therefrom. These samples were then placed in a 5 ml Magnus' tube filled with Krebs-Henseleit solution saturated with a gas mixture of 95% O2 and 5% CO2, and a change in the tension was isometrically measured and recorded. […]

The subject of experiment [4] is Isolated Pig Coronary Arteries. In words: Effect on Big Endothelin-1-induced Contraction in Isolated Pig Coronary Arteries. As for the experimental part: Pig coronary arteries were isolated, and a spiral preparation having a width of 1 mm and a length of 10 mm was prepared therefrom. These samples were then placed in a 5 ml Magnus' tube filled with Krebs-Henseleit solution saturated with a gas mixture of 95% O2 and 5% CO2, and a change in the tension was isometrically measured and recorded.
The influence of a representative compound of the present invention (Compound of Example 11) to the increase in the tension produced by 30 nM of big endothelin-1 was examined. The test compound was added to the Magnus' tube 40 minutes prior to the addition of big endothelin-1.
A 100% increase in the tension was defined as that in the case of no addition of the test compound (control) at 2 hours after addition of big endothelin-1, and the comparison with the increase in the tension in the cases where the test compound was added is shown in Table 2.

pIC50: −log10 of the molar value. “Also recorded” adds a separate entry of the source.

Regarding `CC(C)C[C@H](NC(CCc1ccccc1)P(=O)(O)O)C(=O)N[C@@H](Cc1c[nH]c2ccccc12)C(=O)O` (single isomer, unassigned) [Example 1 (Isomer B), N-[N-(3-phenyl-1-phosphonopropyl)-L-leucyl]-L-tryptophan], the “increase in airway pressure induced by big endothelin-1” value with Guinea Pigs (0.3, 1.0 and 3.0 mg/kg into common carotid vein, 5 minutes before 5 nmol/kg big endothelin-1, FIG. 1) was “remarkably inhibits the increase in the airway pressure; also recorded: suppressed the increase in airway pressure induced by big endothelin-1, in a dose-dependent manner”. Further, in the experiment on Guinea Pigs (test compound alone), the “change in airway pressure on administration of the test compound alone” value is listed as “no change in the airway pressure”.
As a reminder, the pIC50 is the negative decadic logarithm of the IC50, by convention in mol/L. On to `CC(C)C[C@H](NC(CCc1cccc2ccccc12)P(=O)(O)O)C(=O)N[C@@H](Cc1c[nH]c2ccccc12)C(=O)O` (single isomer, unassigned) [Example 2 (Isomer B), N-{N-[3-(1-naphthyl)-1-phosphonopropyl]-L-leucyl}-L-tryptophan], for which the “inhibition of big endothelin-1-induced contraction (in words)” value in experiment [1] (100 nM big endothelin-1, 1-100 μm (so in the source)) was “dose-dependent inhibition”. In addition, the pIC50 in experiment [1] (Cavia porcellus, 100 nM big endothelin-1, guinea pig bronchia, calculated, read-out: IC50 value, inhibition of big endothelin-1-induced contraction) was 4.80. Besides, the activity at 1 µM in experiment [1] (Cavia porcellus, 1 μm (so in the source), 100 nM big endothelin-1, at 2 hours, read-out: Contraction (% of control)) amounted to 105%. The activity at 10 µM in experiment [1] (Cavia porcellus, 10 μm (so in the source), 100 nM big endothelin-1, at 2 hours, read-out: Contraction (% of control)) worked out at 54.9%. The activity at 100 µM in experiment [1] (Cavia porcellus, 100 μm (so in the source), 100 nM big endothelin-1, at 2 hours, read-out: Contraction (% of control)) amounted to 32.9%. In experiment [1] (compound alone), the “effect of the test compound itself on the tension of bronchial samples” value is reported as “no effect”.
A word on the inhibition: it is the share of the control response that was lost under treatment. As to `O=C(O)[C@H](Cc1c[nH]c2ccccc12)NC(=O)[C@H](Cc1ccccc1)NC(CCc1ccccc1)P(=O)(O)O` (single isomer, unassigned) [Example 10 (Isomer B), N-[N-(3-phenyl-1-phosphonopropyl)-L-phenylalanil]-L-tryptophan], 10 µM produced 76% inhibition in experiment [2].
`CC(C)C[C@H](NC(CCc1c[nH]c2ccccc12)P(=O)(O)O)C(=O)N[C@@H](Cc1c[nH]c2ccccc12)C(=O)O` (stereo partly drawn) [Example 6, N-[N-[3-(3-indolyl)-1-phosphonopropyl]-L-leucyl]-L-tryptophan]: in experiment [2], the inhibition at 10 µM was found to be 80%.
On to `CC(C)C[C@H](NC(CCc1ccccc1)P(=O)(O)O)C(=O)N[C@@H](Cc1c[nH]c2ccccc12)C(=O)O` (stereo partly drawn) [Example 11, N-[N-(3-phenyl-1-phosphonopropyl)-L-leucyl]-L-tryptophan], for which the inhibition at 10 µM in experiment [2] stood at 84%. In experiment [3], the “effect on the increase in the tension caused by endothelin-1” value is “no effect”. Further, in experiment [4] (30 nM big endothelin-1, 10-100 μM), the “inhibition of big endothelin-1-induced contraction (in words)” value is listed as “dose-dependent inhibition”. Further, the pIC50 in experiment [4] (Sus scrofa, 30 nM big endothelin-1, pig coronary arteries, calculated, read-out: IC50 value, inhibition of big endothelin-1-induced contraction) is 4.80. The activity at 10 µM in experiment [4] (Sus scrofa, 10 μM, 30 nM big endothelin-1, at 2 hours, read-out: Contraction (% of control)) was determined as 59.9%. In experiment [4] (Sus scrofa, 30 μM, 30 nM big endothelin-1, at 2 hours, read-out: Contraction (% of control)), the activity at 30 µM was 35.3%. The activity at 100 µM in experiment [4] (Sus scrofa, 100 μM, 30 nM big endothelin-1, at 2 hours, read-out: Contraction (% of control)) is 2.7%. In experiment [4] (compound alone), the “effect of the compound itself on the tension of blood vessel samples” value is listed as “no effect”.
As to `CC(C)C[C@H](NP(=O)(O)O[C@@H]1O[C@@H](C)[C@H](O)[C@@H](O)[C@H]1O)C(=O)N[C@@H](Cc1c[nH]c2ccccc12)C(=O)O` [Phosphoramidon, reference compound], 10 µM produced 64% inhibition in experiment [2].
